# Test results as given in patent publication US20070117743A1, “New antitumoral compounds” (priority 2003, published 2007).
# Like-named read-outs stand apart in the source and are kept apart here. Where a SMILES comes first, the peptide text is derived from it. Bridges are numbered along the chain shown (N, C = ends). [ ]: non-standard residue; d: D form. The star is where a group is joined. d(aIle) = CC[C@H](C)[C@@H](N)C(=O)O; d(aThr) = C[C@@H](O)[C@@H](N)C(=O)O; Hexanoyl(5-Me) = CC(C)CCCC(=O)*; d(hCys) = N[C@H](CCS)C(=O)O; Orn = NCCC[C@H](N)C(=O)O; Dhb = C/C=C(\N)C(=O)O
# Assays:
# Format in all cases: cell-based, human
# [1] = system: LoVo; experiment: SRB colorimetric assay of cell growth and viability, LoVo; details: 48 hours exposure
# [2] = system: IGROV-1; experiment: SRB colorimetric assay of cell growth and viability, IGROV-1; details: 48 hours exposure
# [3] = system: K-562; experiment: SRB colorimetric assay of cell growth and viability, K-562; details: 48 hours exposure
# [4] = system: SK-BR-3; experiment: SRB colorimetric assay of cell growth and viability, SK-BR-3; details: 48 hours exposure
# [5] = system: LNCaP; experiment: SRB colorimetric assay of cell growth and viability, LNCaP; details: 48 hours exposure
# [6] = system: IGROV-ET; experiment: SRB colorimetric assay of cell growth and viability, IGROV-ET; details: 48 hours exposure
# [7] = SRB colorimetric assay of cell growth and viability, HMEC-1; details: human, HMEC-1 cells; 48 hours exposure; read-out: LC50 H-MEC-1
# From the text: (§1) The finality of this assay is to interrupt the growth of a “in vitro” tumor cell culture by means a continued exhibition of the cells to the sample to be testing.
# (§2) A colorimetric type of assay, using sulforhodamine B (SRB) reaction has been adapted for a quantitative measurement of cell growth and viability [following the technique described by Philip Skehan, et al. (1990), New colorimetric cytotoxicity assay for anticancer drug screening, J. Natl. Cancer Inst., 82:1107-1112].
# (§3) This form of the assay employs 96 well cell culture microplates of 9 mm diameter (Faircloth, 1988; Mosmann, 1983). Most of the cell lines are obtained from American Type Culture Collection (ATCC) derived from different human cancer types.
# (§4) Cells are maintained in RPMI 1640 10% FBS, supplemented with 0.1 g/l penicillin and 0.1 g/l streptomycin sulfate and then incubated at 37° C., 5% CO2 and 98% humidity. For the experiments, cells were harvested from subconfluent cultures using trypsin and resuspended in fresh medium before plating.
# (§5) Cells are seeded in 96 well microtiter plates, at 5×10^3 cells per well in aliquots of 195 μL medium, and they are allowed to attach to the plate surface by growing in drug free medium for 18 hours. Afterward, samples are added in aliquots of 5 μL in a ranging from 10 to 10^−8 μg/mL, dissolved in DMSO:EtOH:PBS (0.5:0.5:99). After 48 hours exposure, the antitumor effect are measured by the SRB methodology: cells are fixed by adding 50 μL of cold 50% (wt/vol) trichloroacetic acid (TCA) and incubating for 60 minutes at 4° C. Plates are washed with deionized water and dried. One hundred μL of SRB solution (0.4% wt/vol in 1% acetic acid) is added to each microtiter well and incubated for 10 minutes at room temperature. […] Optical densities are read on a automated spectrophotometric plate reader at a single wavelength of 490 nm.
# (§6) The values for mean+/− SD of data from triplicate wells are calculated. Some parameters for cellular responses can be calculated: GI=growth inhibition, TGI=total growth inhibition (cytostatic effect) and LC=cell killing (cytotoxic effect).
# [8] = system: HMEC-1; experiment: as above; details: 48 hours exposure
# From the text: as §1, §2, §3, §4, §5, §6
# [9] = system: LoVo-Dox; experiment: SRB colorimetric assay of cell growth and viability, LoVo-Dox; details: 48 hours exposure
# Procedure, shortened: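 Human tumor cells seeded at 5×10^3/well in RPMI 1640 10% FBS, attached 18 hours, then exposed 48 hours to compound (10 to 10^−8 μg/mL). TCA-fixed, SRB-stained, OD 490 nm; triplicates give GI, TGI and LC values.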
# [10] = system: DU-145; experiment: SRB colorimetric assay of cell growth and viability, DU-145; details: 48 hours exposure
# [11] = system: A-549; experiment: SRB colorimetric assay of cell growth and viability, A-549; details: 48 hours exposure
# [12] = system: SK-OV-3; experiment: SRB colorimetric assay of cell growth and viability, SK-OV-3; details: 48 hours exposure
# From the text: as §1, §2, §3, §4
# (§7) Cells are seeded in 96 well microtiter plates, at 5×10^3 cells per well in aliquots of 195 μL medium, and they are allowed to attach to the plate surface by growing in drug free medium for 18 hours. Afterward, samples are added in aliquots of 5 μL in a ranging from 10 to 10^−8 μg/mL, dissolved in DMSO:EtOH:PBS (0.5:0.5:99). After 48 hours exposure, the antitumor effect are measured by the SRB methodology: cells are fixed by adding 50 μL of cold 50% (wt/vol) trichloroacetic acid (TCA) and incubating for 60 minutes at 4° C. Plates are washed with deionized water and dried. One hundred μL of SRB solution (0.4% wt/vol in 1% acetic acid) is added to each microtiter well and incubated for 10 minutes at room temperature. Unbound SRB is removed by washing with 1% acetic acid. Plates are air dried and bound stain is solubilized with Tris buffer. Optical densities are read on a automated spectrophotometric plate reader at a single wavelength of 490 nm.
# as §6
# [13] = system: SK-MEL-28; experiment: SRB colorimetric assay of cell growth and viability, SK-MEL-28; details: 48 hours exposure
# [14] = system: PANC-1; experiment: SRB colorimetric assay of cell growth and viability, PANC-1; details: 48 hours exposure
# [15] = system: HT-29; experiment: SRB colorimetric assay of cell growth and viability, HT-29; details: 48 hours exposure
# [16] = system: MB-231; experiment: SRB colorimetric assay of cell growth and viability, MB-231; details: for TGI (total growth inhibition): MB-231 cells, 48 hours exposure
# From the text: as §1, §2, §3, §4, §7, §6
# [17] = read-out: GI50 (growth inhibition at 50%), A-549 cells, SRB
# [18] = read-out: LC50 (lethal concentration at 50%), A-549 cells, SRB
# [19] = read-out: GI50 (growth inhibition at 50%), HT-29 cells, SRB
# [20] = read-out: LC50 (lethal concentration at 50%), HT-29 cells, SRB
structure (smiles),measurement,setting,value
"C/C=C1\NC(=O)[C@H](Cc2ccccc2)NC(=O)[C@@H](C(C)C)NC(=O)[C@@H]([C@@H](C)CC)NC(=O)[C@H](NC(=O)[C@H](NC(=O)[C@H](CCCCN)NC(=O)[C@H]2CCCN2C(=O)[C@H](NC(=O)[C@@H](NC(=O)[C@@H](NC(=O)[C@H](NC(=O)CCCC(C)C)C(C)C)[C@@H](C)O)C(C)C)C(C)C)[C@@H](C)CC)[C@@H](C)OC(=O)[C@H](C(C)C)NC1=O [Compound 5, [Lys^8]-KF]",GI50,[1],155 nM
same,TGI LOVO,[1],2.71E−07 Molar
same,CC50,[1]; read-out: LC50 LOVO,478 nM
same,GI50,[2],183 nM
same,LC50 (concentration causing 50% net cell killing),[2],1230 nM
same,TGI IGROV,[2],3.71E−07 Molar
same,GI50,[3],771 nM
same,TGI K-562,[3],1.65E−06 Molar
same,CC50,[3]; read-out: LC50 K-562,3550 nM
same,GI50,[4],169 nM
same,LC50,[4],554 nM
same,TGI SK-BR-3,[4],3.06E−07 Molar
same,TGI LN-caP,[5],2.61E−08 Molar
same,GI50,[5]; read-out: GI50 LN-caP,14.2 nM
same,CC50,[5]; read-out: LC50 LN-caP,47.9 nM
same,GI50,[6],240 nM
same,TGI IGROV-ET,[6],4.88E−07 Molar
same,CC50,[6]; read-out: LC50 IGROV-ET,2830 nM
same,CC50 at 48 h,[7],44.6 nM
same,TGI H-MEC-1,[8],2.63E−08 Molar
same,GI50,[8]; read-out: GI50 H-MEC-1,15.6 nM
same,GI50,[9],162 nM
same,TGI LOVO-DOX,[9],2.98E−07 Molar
same,CC50,[9]; read-out: LC50 LOVO-DOX,552 nM
same,GI50,[10],18.1 nM
same,LC50 (concentration causing 50% net cell kill),[10],56.9 nM
same,TGI DU-145,[10],3.20E−08 Molar
same,TGI A-549,[11],2.75E−07 Molar
same,GI50,[11]; read-out: GI50 A-549,129 nM
same,CC50,[11]; read-out: LC50 A-549,582 nM
same,TGI SKOV-3,[12],4.08E−07 Molar
same,GI50,[12]; read-out: GI50 SKOV-3,196 nM
same,CC50,[12]; read-out: LC50 SKOV-3,1490 nM
same,GI50,[13],811 nM
same,TGI MEL-28,[13],1.87E−06 Molar
same,CC50,[13]; read-out: LC50 MEL-28,4300 nM
same,GI50,[14],1140 nM
same,TGI PANC-1,[14],2.37E−06 Molar
same,CC50,[14]; read-out: LC50 PANC-1,4920 nM
same,TGI HT-29,[15],2.81E−07 Molar
same,GI50,[15]; read-out: GI50 HT-29,158 nM
same,CC50,[15]; read-out: LC50 HT-29,498 nM
"C/C=C1\NC(=O)[C@H](Cc2ccccc2)NC(=O)[C@@H](C(C)C)NC(=O)[C@@H]([C@@H](C)CC)NC(=O)[C@H](NC(=O)[C@@H](CS)NC(=O)[C@H](CCCN)NC(=O)[C@H]2CCCN2C(=O)[C@H](NC(=O)[C@H](CS)NC(=O)[C@@H](NC(=O)[C@H](NC(=O)CCCC(C)C)C(C)C)[C@@H](C)O)C(C)C)[C@@H](C)OC(=O)[C@H](C(C)C)NC1=O [Compound 107, [D-Cys^7, L-Cys^11]-KF] ({Hexanoyl(5-Me)}-[dV]TC[dV][dP][Orn][dC][d(aThr)][d(aIle)][dV]F[Dhb]V; ester 8-C)",TGI (total growth inhibition),[16],6.80E−06 Molar
same,TGI (total growth inhibition),"[11]; A-549 cells, SRB",6.80E−06 Molar
same,GI50,[11]; [17],6800 nM
same,CC50,[11]; [18],6800 nM
same,TGI (total growth inhibition),"[15]; HT-29 cells, SRB",6.80E−06 Molar
same,GI50,[15]; [19],6800 nM
same,CC50,[15]; [20],6800 nM
"C/C=C1\NC(=O)[C@H](Cc2ccccc2)NC(=O)[C@@H](C(C)C)NC(=O)[C@@H]([C@@H](C)CC)NC(=O)[C@H](NC(=O)[C@@H](CS)NC(=O)[C@H](CCCN)NC(=O)[C@H]2CCCN2C(=O)[C@@H](CS)NC(=O)[C@@H](NC(=O)[C@@H](NC(=O)[C@H](NC(=O)CCCC(C)C)C(C)C)[C@@H](C)O)C(C)C)[C@@H](C)OC(=O)[C@H](C(C)C)NC1=O [Compound 108, [D-Cys^7, D-Cys^10]-KF] ({Hexanoyl(5-Me)}-[dV]TV[dC][dP][Orn][dC][d(aThr)][d(aIle)][dV]F[Dhb]V; ester 8-C)",TGI (total growth inhibition),[16],6.53E−06. Molar
same,TGI (total growth inhibition),"[11]; A-549 cells, SRB",6.53E−06. Molar
same,GI50,[11]; [17],6530 nM
same,CC50,[11]; [18],6530 nM
same,TGI (total growth inhibition),"[15]; HT-29 cells, SRB",6.53E−06. Molar
same,GI50,[15]; [19],6530 nM
same,CC50,[15]; [20],6530 nM
"C/C=C1\NC(=O)[C@H](Cc2ccccc2)NC(=O)[C@@H](C(C)C)NC(=O)[C@@H]([C@@H](C)CC)NC(=O)[C@H](NC(=O)[C@@H](CCS)NC(=O)[C@H](CCCN)NC(=O)[C@H]2CCCN2C(=O)[C@@H](CCS)NC(=O)[C@@H](NC(=O)[C@@H](NC(=O)[C@H](NC(=O)CCCC(C)C)C(C)C)[C@@H](C)O)C(C)C)[C@@H](C)OC(=O)[C@H](C(C)C)NC1=O [Compound 109, [D-homoCys^7, D-homoCys^10]-KF] ({Hexanoyl(5-Me)}-[dV]TV[d(hCys)][dP][Orn][d(hCys)][d(aThr)][d(aIle)][dV]F[Dhb]V; ester 8-C)",TGI (total growth inhibition),[16],6.26E−06 Molar
same,TGI (total growth inhibition),"[11]; A-549 cells, SRB",6.26E−06 Molar
same,GI50,[11]; [17],6260 nM
same,CC50,[11]; [18],6260 nM
same,TGI (total growth inhibition),"[15]; HT-29 cells, SRB",6.26E−06 Molar
same,GI50,[15]; [19],6260 nM
same,CC50,[15]; [20],6260 nM
"C/C=C1\NC(=O)[C@H](Cc2ccccc2)NC(=O)[C@@H](C(C)C)NC(=O)[C@@H]([C@@H](C)CC)NC(=O)[C@H](NC(=O)[C@H](NC(=O)[C@H](CCCN)NC(=O)[C@H]2CCCN2C(=O)[C@H](NC(=O)[C@@H](NC(=O)[C@@H](NC(=O)[C@H](NC(=O)CCCC(C)C)C(C)C)[C@@H](C)O)C(C)C)C(C)C)[C@@H](C)CC)[C@@H](C)OC(=O)[C@@H](C(C)C)NC1=O [Compound 110, [D-Val^1]-KF]",TGI (total growth inhibition),[16],3.71E−06 Molar
same,GI50,"[16]; read-out: GI50 (growth inhibition at 50%), MB-231 cells, 48 hours exposure",3200 nM
same,CC50,"[16]; read-out: LC50 (lethal concentration at 50%), MB-231 cells, 48 hours exposure",6280 nM
same,TGI (total growth inhibition),"[11]; A-549 cells, SRB",1.13E−06 Molar
same,GI50,[11]; [17],879 nM
same,CC50,[11]; [18],1630 nM
same,TGI (total growth inhibition),"[15]; HT-29 cells, SRB",5.15E−07 Molar
same,GI50,[15]; [19],408 nM
same,CC50,[15]; [20],691 nM
